Molecules are shown by their SMILES.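 Five concentrations, 48 hours, 96-well plates. TGI is the concentration that stops growth completely.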

Among the test systems are RXF 393 renal; UACC-62 melanoma; SF-268 CNS; UO-31 renal; 786-0 renal; TK-10 renal; SW-620 colon; HCC-2998 colon; SF-295 CNS; BT-549 breast; HT29 colon; ACHN renal; NCI-H23 lung; HOP-92 NSCLC.
Assay in all cases: NCI anticancer screen, dose series, 48 h

For `COC1OC2COC(C)(C)OC2C2OC(C)(C)OC12` (stereo not drawn), the TGI in the assay on RXF 393 renal is more than 100 µM; in the assay on UACC-62 melanoma, more than 100 µM; with SF-268 CNS, more than 100 µM; in the assay on UO-31 renal, more than 100 µM; with 786-0 renal it was 52 µM; in the assay with TK-10 renal, more than 100 µM. Further, the TGI in the assay with SW-620 colon, in the assay with HCC-2998 colon, with SF-295 CNS, with BT-549 breast, in the assay with HT29 colon and with ACHN renal was more than 100 µM each time. Also, in the assay on NCI-H23 lung, the TGI was more than 100 µM.
On to `CCOC(=O)c1[nH]c2nc(SC)nc(NC)c2c1N`, for which the TGI in the assay with RXF 393 renal, in the assay with UACC-62 melanoma, in the assay with SF-268 CNS, in the assay on UO-31 renal, in the assay with 786-0 renal and in the assay on TK-10 renal was more than 100 µM in each case. Moreover, the TGI in the assay with SW-620 colon, in the assay on HCC-2998 colon, in the assay on SF-295 CNS, in the assay with BT-549 breast, in the assay with HT29 colon and in the assay on ACHN renal was more than 100 µM throughout. Moreover, the TGI in the assay with NCI-H23 lung is more than 100 µM.
In the case of `COc1cc2c(cc1O)CC[n+]1cc3c(OC)c(OC)ccc3cc1-2`, the TGI with UACC-62 melanoma, with SF-268 CNS, with UO-31 renal, in the assay on 786-0 renal, in the assay on TK-10 renal and with SW-620 colon was more than 100 µM throughout. In addition, the TGI with HCC-2998 colon, in the assay on SF-295 CNS, in the assay with BT-549 breast, with HT29 colon, with ACHN renal and with HOP-92 NSCLC was more than 100 µM throughout. Further, in the assay with NCI-H23 lung, the TGI is more than 100 µM.
For `C[C@@H]1C(=O)CC2(O)[C@@]13C[C@@H](OC(=O)[C@@H]3O)[C@@H](C)[C@@]21COC1=O` (stereo partly drawn), the TGI in the assay on RXF 393 renal, in the assay on UACC-62 melanoma, in the assay on SF-268 CNS, in the assay with UO-31 renal, in the assay on 786-0 renal and in the assay with TK-10 renal was more than 100 µM throughout. The TGI with SW-620 colon, in the assay with HCC-2998 colon, with SF-295 CNS, in the assay with BT-549 breast, in the assay on HT29 colon and in the assay with ACHN renal was more than 100 µM throughout. Further, the TGI with NCI-H23 lung is more than 100 µM.
For `COC(=O)C1=C(C(=O)OC)C2(C)CCC(=O)C1O2` (stereo not drawn), the TGI in the assay on RXF 393 renal, with UACC-62 melanoma, with SF-268 CNS, with UO-31 renal, with 786-0 renal and with TK-10 renal was more than 10 µM each time. In addition, the TGI in the assay with SW-620 colon, in the assay on HCC-2998 colon, in the assay with SF-295 CNS, with BT-549 breast, in the assay with HT29 colon and with ACHN renal was more than 10 µM each time. This molecule gave a TGI with NCI-H23 lung of more than 10 µM.
As for `Cc1ccc2c(c1)C(=O)/C(=C\c1ccc(Cl)cc1)CCS2(=O)=O`, the TGI is 10.2 µM in the assay with UACC-62 melanoma; 16.1 µM with SF-268 CNS; 9.02 µM in the assay with UO-31 renal; 3.49 µM with 786-0 renal; 5.11 µM with TK-10 renal; 12.1 µM in the assay on SW-620 colon. Moreover, the TGI with HCC-2998 colon was 5.43 µM; in the assay with SF-295 CNS it was 17.9 µM; with BT-549 breast, 12.7 µM; with HT29 colon it was 6.54 µM; with ACHN renal, 3.83 µM; in the assay on HOP-92 NSCLC, 18.3 µM. Besides, the TGI in the assay on NCI-H23 lung amounted to 10.2 µM.
For the molecule `Cc1cccc(NC(Nc2cccc(C)c2)=C(C(Cl)=C(Cl)Cl)[N+](=O)[O-])c1`, the TGI in the assay on RXF 393 renal stood at 22.8 µM; with UACC-62 melanoma, 40.6 µM; in the assay on SF-268 CNS, 30.6 µM; in the assay with UO-31 renal, 26.4 µM; in the assay with 786-0 renal, 44.3 µM; in the assay with TK-10 renal, 28.5 µM. For the same molecule, the TGI in the assay with SW-620 colon was 34.2 µM; in the assay with HCC-2998 colon, more than 57.8 µM; in the assay with SF-295 CNS it was more than 66.8 µM; in the assay with BT-549 breast it was 26.3 µM; in the assay on HT29 colon, more than 54 µM; in the assay on ACHN renal, 43.1 µM. The molecule also registered a TGI in the assay with NCI-H23 lung of 23.6 µM.
For `Nc1n[nH]c2ccccc12`, the TGI in the assay with RXF 393 renal, with UACC-62 melanoma, in the assay with SF-268 CNS, with UO-31 renal, in the assay on 786-0 renal and with TK-10 renal was more than 100 µM each time. In addition, the TGI in the assay on SW-620 colon, in the assay with SF-295 CNS, with BT-549 breast, in the assay with HT29 colon, in the assay on ACHN renal and in the assay on HOP-92 NSCLC was more than 100 µM throughout. The TGI with NCI-H23 lung is more than 100 µM.
Regarding `COc1cc(-c2c3c(cc4c2OCO4)[C@@H](Nc2ccc4c(c2)Cc2cc(N[C@@H]5c6cc7c(cc6C(c6cc(OC)c(O)c(OC)c6)[C@H]6C(=O)OC[C@H]56)OCO7)ccc2-4)[C@H]2COC(=O)[C@@H]2C3)cc(OC)c1O` (stereo partly drawn), the TGI in the assay on SF-268 CNS is more than 100 µM; in the assay with UO-31 renal, more than 100 µM; in the assay on 786-0 renal, 63.7 µM; in the assay with TK-10 renal, more than 100 µM; with SW-620 colon, more than 100 µM; in the assay on SF-295 CNS, 42.3 µM. Also, the TGI was 94.5 µM in the assay on BT-549 breast; 47.2 µM with HT29 colon; more than 100 µM in the assay on ACHN renal; 97.3 µM in the assay with HOP-92 NSCLC; more than 100 µM with NCI-H23 lung.
On to `CCOC(=O)c1ccc(C(=O)/C(C(=O)OC(C)(C)C)=C2\CCCN2C)n1C`, for which the TGI in the assay with RXF 393 renal, with UACC-62 melanoma, in the assay with SF-268 CNS, in the assay with UO-31 renal, with 786-0 renal and in the assay on TK-10 renal was more than 100 µM in each case. The TGI in the assay on SW-620 colon, in the assay with HCC-2998 colon, with SF-295 CNS, with BT-549 breast, in the assay with HT29 colon and in the assay on ACHN renal was more than 100 µM in each case. The molecule also returned a TGI with NCI-H23 lung of more than 100 µM.

The values above are taken from PubChem BioAssay (NCI).
